Literature values, collected in patent publication US20100247552A1, “PAK MODULATORS” (MASSACHUSETTS INSTITUTE OF TECHNOLOGY, priority 2006, published 2010).

Legend:
PAK5 [1] = biological target: T1, PAK5 (Homo sapiens, UniProt Q9P286); conditions: 10 μM compound
PAK4 [2] = biological target: T2, PAK4 (Homo sapiens, UniProt O96013); conditions: 10 μM compound
PAK6 [3] = biological target: T3, PAK6 (Homo sapiens, UniProt Q9NQU5); conditions: 10 μM compound
PAK6 [4] = biological target: T3, PAK6
PAK5 [5] = biological target: T1, PAK5
PAK4 [6] = biological target: T2, PAK4
[7] = solvents
[8] = system: human cancer cell migration; conditions: 40 μM; interferes with formation of active Cdc42/Rac1 and PAK complex
PAK = conditions: probably competitive inhibition of ATP binding; units printed within the value (nM and μM); read-out: IC50 for inhibition of PAK kinase activity

T3 sequence (Q9NQU5 whole entry): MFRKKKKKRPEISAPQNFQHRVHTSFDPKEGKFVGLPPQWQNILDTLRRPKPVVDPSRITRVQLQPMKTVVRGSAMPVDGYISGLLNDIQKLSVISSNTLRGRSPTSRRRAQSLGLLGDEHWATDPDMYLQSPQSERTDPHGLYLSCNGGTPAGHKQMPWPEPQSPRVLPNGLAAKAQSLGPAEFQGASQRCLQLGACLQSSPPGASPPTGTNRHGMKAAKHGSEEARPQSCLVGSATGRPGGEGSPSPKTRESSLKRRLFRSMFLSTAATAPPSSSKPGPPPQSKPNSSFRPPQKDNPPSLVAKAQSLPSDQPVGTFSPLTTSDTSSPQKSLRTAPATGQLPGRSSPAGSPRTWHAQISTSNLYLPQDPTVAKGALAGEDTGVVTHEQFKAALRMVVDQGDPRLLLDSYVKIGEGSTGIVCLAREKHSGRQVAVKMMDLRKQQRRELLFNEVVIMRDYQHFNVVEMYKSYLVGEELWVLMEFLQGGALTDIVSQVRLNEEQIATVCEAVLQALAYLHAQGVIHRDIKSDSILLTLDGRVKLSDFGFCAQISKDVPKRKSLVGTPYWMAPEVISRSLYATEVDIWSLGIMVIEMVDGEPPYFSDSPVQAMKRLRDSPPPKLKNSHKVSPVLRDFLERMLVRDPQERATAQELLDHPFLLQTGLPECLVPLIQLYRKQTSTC
T2 sequence (O96013 291-591 limits assumed): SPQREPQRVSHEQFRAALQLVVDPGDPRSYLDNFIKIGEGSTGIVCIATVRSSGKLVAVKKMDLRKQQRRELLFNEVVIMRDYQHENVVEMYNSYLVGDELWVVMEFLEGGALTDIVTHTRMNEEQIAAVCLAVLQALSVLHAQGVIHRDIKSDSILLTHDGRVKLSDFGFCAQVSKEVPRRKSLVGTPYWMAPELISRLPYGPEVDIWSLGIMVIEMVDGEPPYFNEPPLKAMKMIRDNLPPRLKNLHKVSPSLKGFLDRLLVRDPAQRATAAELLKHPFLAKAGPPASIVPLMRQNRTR
T1 sequence (Q9P286 whole entry): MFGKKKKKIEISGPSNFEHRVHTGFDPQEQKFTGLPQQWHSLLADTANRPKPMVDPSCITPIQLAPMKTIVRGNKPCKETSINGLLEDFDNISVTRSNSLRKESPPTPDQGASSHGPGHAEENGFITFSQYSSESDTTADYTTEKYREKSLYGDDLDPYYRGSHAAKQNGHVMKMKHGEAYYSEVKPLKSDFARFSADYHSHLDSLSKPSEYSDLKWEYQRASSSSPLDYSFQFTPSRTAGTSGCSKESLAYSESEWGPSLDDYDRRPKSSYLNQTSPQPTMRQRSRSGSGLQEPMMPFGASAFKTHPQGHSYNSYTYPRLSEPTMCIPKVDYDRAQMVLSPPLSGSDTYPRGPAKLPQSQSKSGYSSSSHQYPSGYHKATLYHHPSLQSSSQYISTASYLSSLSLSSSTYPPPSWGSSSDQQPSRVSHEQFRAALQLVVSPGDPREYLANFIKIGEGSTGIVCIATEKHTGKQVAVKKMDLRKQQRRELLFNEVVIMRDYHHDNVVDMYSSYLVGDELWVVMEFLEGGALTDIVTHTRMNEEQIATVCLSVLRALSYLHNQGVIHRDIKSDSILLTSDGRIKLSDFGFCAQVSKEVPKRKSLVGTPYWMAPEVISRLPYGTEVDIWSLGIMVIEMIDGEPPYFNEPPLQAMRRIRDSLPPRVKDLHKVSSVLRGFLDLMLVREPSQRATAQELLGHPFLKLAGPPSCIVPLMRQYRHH

| SMILES | % Activity at 10 μM PAK5 (PAK5 [1]) | % Activity at 10 μM PAK4 (PAK4 [2]) | % Activity at 10 μM PAK6 (PAK6 [3]) | Tm Shift PAK6 (PAK6 [4]) | Tm Shift PAK5 (PAK5 [5]) | Tm Shift PAK4 (PAK4 [6]) | Solubility [7] | Effect on human cancer cell migration [8] | IC50 (PAK) |
| --- | --- | --- | --- | --- | --- | --- | --- | --- | --- |
| C[C@]12OC(C[C@]1(O)C(=O)O)n1c3ccccc3c3c4c(c5c6ccccc6n2c5c31)CNC4=O [K252a] | 22% | 16% | 16% | 8.6 ± 1.0 °C | 5.9 ± 0.3 °C | 4.5 ± 0.3 °C | – | – | – |
| Cc1cc(O)c2c(c1)C(=O)c1cc(O)cc(O)c1C2=O [Emodin, 1,3,8-Tri-hydroxy-6-methyl-anthra-quinone] | – | – | – | – | – | – | soluble in DMSO, ethanol, or 1 N dilute aqueous ammonia | inhibits human cancer cell migration | – |
| Nc1nc(Nc2ccc(S(N)(=O)=O)cc2)nn1C(=S)Nc1c(F)cccc1F [Cdk 1/2 Inhibitor III] | 7.0% | 62% | 18% | 5.6 ± 0.8 °C | 5.6 ± 0.3 °C | 6.5 ± 0.2 °C | – | – | – |
| CN[C@@H]1C[C@H]2O[C@@](C)([C@@H]1OC)n1c3ccccc3c3c4c(c5c6ccccc6n2c5c31)C(=O)NC4 [Staurosporine] | 0% | – | 0% | – | – | – | – | – | – |
| NCC(=O)Nc1ccc(-n2nc(C(F)(F)F)cc2-c2ccc3c(ccc4ccccc43)c2)cc1 [OSU-03012, 2-amino-N-{4-[5-(2-phenanthrenyl)-3-(trifluoromethyl)-1H-pyrazol-1-yl]-phenyl}acetamide] | – | – | – | – | – | – | soluble in organic solvents such as DMSO, ethanol, and DMF | – | 500 to 1000 nM |
| CCN(CC)CCNC(=O)c1c(C)[nH]c(/C=C2\C(=O)Nc3ccc(Cl)cc32)c1C [SU11652] | 43% | 34% | 75% | 5.3 ± 0.3 °C | 5.3 ± 0.2 °C | 6.4 ± 1.2 °C | – | – | – |
| CCn1cnc2c(Nc3cccc(Cl)c3)nc(NC3CCCCC3N)nc21 (stereo not drawn) [Cdkl Inhibitor] | 12% | 56% | 23% | 7.0 ± 0.3 °C | 7.1 ± 0.3 °C | 7.0 ± 1.5 °C | – | – | – |
